The source of these data is patent US11098336B2, “Biosynthesis of bioorthogonal amino acids” (The Regents of the University of California, priority 2017, dated 2021).

In one data set the target is T1, BesB (Streptantibioticus cattleyicolor, UniProt G8XHD7).
T1 construct: made in house
Put plainly: BesB terminal-alkyne (Pra) formation in vitro; isomerization, D2O exchange and PLP-conjugate trapping. The data set is classed as biochemical, Streptomyces cattleya. The note with it: for formation of Pra by BesB from substrate: in vitro; for binding to BesB as PLP-conjugate: chemical reduction with imine-reducing reagents. As for the experimental part:
We next turned our attention to formation of the terminal-alkyne. BesB belongs to a family of proteins that utilize pyrodoxyal-5′-phosphate (PLP) as cofactor. Incubating purified BesD, BesC, and BesB in the presence of iron, ascorbate, lysine, and PLP was sufficient to produce Pra in vitro. This order of events is […] to how terminal-alkynes are synthesized chemically, since biosynthesis of Pra involves elimination of an alkyl-halide to a terminal-alkyne. Terminal desaturations have previously only been observed on fatty acids and catalyzed by O2/di-iron dependent fatty acid desaturases. […] From in vitro characterization, we also found it was necessary for the amino acid substrate to be halogenated at the Cγ position.
(§1) While formation of allene-quinonoid can be mechanistically explained, there is no precedence of an enzyme catalyzed allene-alkyne isomerization. One possibility is that BesB forms α-allenyl-glycine enzymatically and isomerization occurs after α-allenyl-glycine is released from PLP. […] Another possibility is BesB produces and releases α-allenyl-glycine, and is subsequently enzymatically isomerized. […] Finally, we explored the possibility of α-allenyl-glycine binding to BesB as a PLP-conjugate by chemically reducing the whole complex with imine-reducing reagents.

A further data set addresses BesA (Streptantibioticus cattleyicolor, UniProt G8XHD8). Put plainly: BesA dipeptide formation in vitro with glutamate and ATP, substrate specificity. The data set is classed as biochemical, Streptomyces cattleya. The following applies: for activity as BesA substrate (ligation to glutamate): reacted with glutamate, ATP. From the text:
We then explored the specifity of BesA by reacting glutamate with norvaline, allylglycine, and the remaining 19 canonical amino acids.
BesA shares homology to carboxylate-amine ligases, which form amides between amines and carboxylates through an ATP-dependent mechanism.

For the next data set, the target named is BesE (Streptantibioticus cattleyicolor, UniProt F8JJ27). Kind of data set: BesE hydroxylation in vitro in the presence of ascorbate and α-KG. The data set is classed as biochemical, Streptomyces cattleya. From the text: Knockout strain of putative amino acid hydroxylase, BesE, was only capable of producing Pra. […] This lead us to believe that there might be an amino acid carrier that serves as the true substrate for BesE. Through comparative metabolomics, we were able to identify a metabolite enriched in S. cattleya ΔbesE over wildtype. This compound was also present, but at low concentration, in S. cattleya ΔbesA. We identified this compound as having mass consistent with a Pra-Glu dipeptide. When this compound was fragmented we were able to detect characteristic fragments consistent with an amide bond cleavage, supporting evidence that this compound is a Pra-Glu dipeptide.
The last dedicated enzyme involved in the biosynthesis of βes is BesE. Once we had identified Pra-Glu as the product of BesA, it became apparent that the true substrate of BesE is a Pra-Glu dipeptide. S. cattleya ΔbesB, ΔbesC, ΔbesD, and ΔbesE were unable to produce measurable amounts of the dipeptides in vivo. In comparison, ΔbesA was still able to produce βes-Glu but at lower titers when compared to S. cattleya wildtype.

For another data set, the target named is BesD from S. cattleya (Streptantibioticus cattleyicolor, UniProt G8XHD5). Kind of data set: BesD enzyme-coupled assay that reports on succinate production. The data set is classed as biochemical, Streptomyces cattleya. From the text: Activity of BesD from S. cattleya on L-lysine was first screened using an enzyme-coupled assay that reports on succinate production.

The target in a further data set is T2, BesC (Streptantibioticus cattleyicolor, UniProt F8JJ25).
T2 construct: made in house
Put plainly: BesC coupled reaction with BesD, cofactors and lysine. The following applies: cofactors. The data set is classed as biochemical, Streptomyces cattleya. From the text: To further characterize BesC, we then tested the ability of BesC to produce 4-Cl-allygllycine in vitro. Addition of Fe(II) to purified apo-enzyme supports the observed reaction, while omission of Fe(II) results in no reaction, supporting the Fe-dependence of the enzyme.

Another data set has as its system cystathionine-γ-lyase. The note with it: previously identified; cited from earlier work.
Data set [1] can be described thus: spontaneous isomerization of free α-allenyl-glycine in buffered solution / D2O. The data set is classed as physicochemical.
Source text: as §1

T1 sequence (G8XHD7 whole entry): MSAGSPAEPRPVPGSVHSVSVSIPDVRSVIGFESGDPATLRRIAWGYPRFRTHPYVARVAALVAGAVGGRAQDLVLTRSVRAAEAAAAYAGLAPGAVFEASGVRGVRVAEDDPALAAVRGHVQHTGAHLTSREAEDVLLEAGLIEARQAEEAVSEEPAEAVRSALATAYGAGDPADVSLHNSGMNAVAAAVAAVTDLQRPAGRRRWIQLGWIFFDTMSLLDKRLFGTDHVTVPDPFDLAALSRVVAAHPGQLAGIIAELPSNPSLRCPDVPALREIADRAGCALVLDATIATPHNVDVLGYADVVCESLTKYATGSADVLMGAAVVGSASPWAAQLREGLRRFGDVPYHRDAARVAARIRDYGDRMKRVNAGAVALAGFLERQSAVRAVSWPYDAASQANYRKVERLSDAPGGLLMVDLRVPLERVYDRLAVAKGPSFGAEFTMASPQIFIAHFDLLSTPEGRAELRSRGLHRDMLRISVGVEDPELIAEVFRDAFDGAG
Sequence of BesD from S. cattleya (G8XHD5 whole entry): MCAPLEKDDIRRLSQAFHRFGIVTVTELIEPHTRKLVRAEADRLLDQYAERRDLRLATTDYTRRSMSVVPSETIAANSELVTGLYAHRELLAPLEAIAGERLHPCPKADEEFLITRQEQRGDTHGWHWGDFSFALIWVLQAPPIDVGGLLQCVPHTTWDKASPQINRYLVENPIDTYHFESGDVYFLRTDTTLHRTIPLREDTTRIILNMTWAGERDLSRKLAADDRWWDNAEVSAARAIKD
Sequence of BesA (G8XHD8 whole entry): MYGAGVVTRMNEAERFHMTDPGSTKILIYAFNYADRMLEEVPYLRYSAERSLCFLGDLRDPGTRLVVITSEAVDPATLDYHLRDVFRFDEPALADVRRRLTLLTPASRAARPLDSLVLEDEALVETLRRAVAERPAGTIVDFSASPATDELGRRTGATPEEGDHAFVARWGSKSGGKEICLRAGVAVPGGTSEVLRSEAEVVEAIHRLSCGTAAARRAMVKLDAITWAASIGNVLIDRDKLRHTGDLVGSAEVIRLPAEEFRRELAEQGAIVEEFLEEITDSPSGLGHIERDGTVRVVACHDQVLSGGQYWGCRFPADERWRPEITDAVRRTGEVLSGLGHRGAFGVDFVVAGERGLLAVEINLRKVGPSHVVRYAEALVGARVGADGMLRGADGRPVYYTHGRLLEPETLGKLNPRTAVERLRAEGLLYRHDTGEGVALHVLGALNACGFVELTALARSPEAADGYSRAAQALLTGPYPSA
Sequence of BesE (F8JJ27 whole entry, the tested form may be a part): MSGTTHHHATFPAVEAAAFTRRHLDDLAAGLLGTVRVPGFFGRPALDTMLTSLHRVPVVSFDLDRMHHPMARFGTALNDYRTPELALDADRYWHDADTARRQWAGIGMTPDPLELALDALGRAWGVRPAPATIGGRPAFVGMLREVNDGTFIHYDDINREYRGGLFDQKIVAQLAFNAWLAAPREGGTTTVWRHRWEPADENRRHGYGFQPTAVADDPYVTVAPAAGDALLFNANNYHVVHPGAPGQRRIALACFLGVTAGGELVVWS
T2 sequence (F8JJ25 whole entry): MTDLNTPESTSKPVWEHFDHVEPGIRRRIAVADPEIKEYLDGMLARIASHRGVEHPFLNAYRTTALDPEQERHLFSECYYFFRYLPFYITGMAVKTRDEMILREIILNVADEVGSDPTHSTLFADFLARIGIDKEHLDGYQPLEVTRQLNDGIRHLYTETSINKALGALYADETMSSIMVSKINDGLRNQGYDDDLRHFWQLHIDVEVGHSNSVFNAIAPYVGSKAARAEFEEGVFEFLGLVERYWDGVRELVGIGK

For the compound `C=C(Br)CC(N)C(=O)O` (stereo not shown) [4-Br-allylglycine], the “formation of Pra by BesB from substrate” value at BesB is given as “able to form Pra”.
Same read-out and setting: then `C=C(Cl)CC(N)C(=O)O` (stereo not shown) [4-Cl-allylglycine], with “able to form Pra”.
Consider `N[C@@H](CS)C(=O)O` [Cys, cysteine], for which, on BesA, the “activity as BesA substrate (ligation to glutamate)” value (from here on “activity as BesA substrate”) is given as “measurable activity”.
For the compound `C#CC[C@H](NC(=O)CC[C@H](N)C(=O)O)C(=O)O` [Glu-Pra dipeptide, γ-Glu-α-Pra], the “reaction with BesE (hydroxylation)” value at BesE was “able to hydroxylate”.
For `NCCCC[C@H](N)C(=O)O` [L-lysine], the “BesD activity with substrate (rate of NADH production)” value (from here on “BesD activity with substrate”) at BesD from S. cattleya is “greatest”. Moreover, on BesC, the “accepted as BesC substrate” value is “accepts lysine as a substrate directly to form allylglycine”.
As to `C#CCC(N)C(=O)O` (stereo not shown) [Pra, propargylglycine], the “reaction with BesE (hydroxylation)” value on BesE is “no reaction was observed”. The “inhibition of PLP proteins including cystathionine-γ-lyase” value in the data set with cystathionine-γ-lyase is “mechanistic, suicide inhibitor”. Moreover, the “binding to BesB as PLP-conjugate” value on BesB is “able to observe Pra as a PLP bound species”. Also, on BesA (BesA substrate), the “Km for Pra relative to Km for Cys” value is reported as 10 fold lower and the “kcat, Pra compared with Cys” value is on record as “comparable”. Also, the “activity as BesA substrate” value at BesA was “measurable activity”.
For the compound `C=CCC(N)C(=O)O` (stereo not shown) [allylglycine], the “formation of Pra by BesB from substrate” value at BesB is “not when allylglycine is a substrate”. On BesA, the “activity as BesA substrate” value was “Pra and Cys were the only two amino acids to show any measurable activity”.
For `N=C(N)NCCC[C@H](N)C(=O)O` [arginine], the “BesD activity with substrate” value on BesD from S. cattleya is “no activity”.
As to `CCC[C@H](N)C(=O)O` [norvaline], at BesD from S. cattleya, the “BesD activity with substrate” value is reported as “no activity”. Further, the “activity as BesA substrate” value at BesA was “Pra and Cys were the only two amino acids to show any measurable activity”.
Consider `C=C=CC(N)C(=O)O` (stereo not drawn) [α-allenyl-glycine, reference compound], for which the “spontaneous formation of Pra” value in data set [1] (buffered solution, 24 h, room temperature) is “did not produce detectable amounts of Pra”. Moreover, in data set [1] (incubated in D2O, no enzyme), the exchange with solvent entry is given as “negligible exchange”. Further, the “binding to BesB as PLP-conjugate” value at BesB is “unable to bind BesB”. Moreover, on BesB (incubated with BesB in D2O), the “D2O exchange in the presence of BesB” value is given as “neglible D2O exchange” and the “isomerization by BesB” value is given as “no isomerization”.
